Experimental data from US7271198B2, “Method of treating autoimmune diseases” (Wake Forest University, priority 2000, dated 2007).
“And” between values parts separate entries of the source, which are not always exact repeats. Equal values may be shown once.

Key:
IL-6 mRNA = IL-6 mRNA in MRL/lpr splenocytes; type: cell-based, mouse
Experimental: In determining whether TSA or SAHA down-regulate IL-6 mRNA content, splenocytes from 24-wk MRL/lpr mice were treated with increasing concentrations of TSA for 18 hr. […] TSA decreased IL-6 transcript at a concentration of 100 ng/ml and exerted maximal inhibition at 300 ng/ml. To address whether TSA and SAHA down-regulate LPS- and IFN-γ induced IL-6 transcript levels, splenocytes from younger MRL/lpr mice were treated in the absence or presence of TSA or SAHA for 18 hr before LPS and IFN-γ stimulation for 6 or 18 hr. […] Next, the effect of TSA and SAHA on IL-6 protein secretion in stimulated splenocytes was measured (FIG. 10D). When splenocytes were cultured with LPS and IFN-γ for 72 hr, there was a mean (±SEM) 34.4±7.6 pg/ml of IL-6 protein secretion.

mesangial cells = experiment: Nitric oxide production by MRL/lpr mesangial cells; type: cell-based, mouse; conditions: LPS 1 mg/ml, 24 hr
From the text: Excessive production of nitric oxide (NO) is crucial to the initiation and maintenance of glomerulonephritis in MRL/lpr mice. Pharmacologic inhibition of NO synthesis in MRL/lpr mice abrogates disease progression. In examining whether HDIs could suppress inducible nitric oxide synthetase (iNOS), splenocytes from 10 wk old mice were stimulated in the presence or absence of TSA or SAHA with LPS and IFN-γ for 24 hr. […] To determine whether HDIs could suppress nitric oxide secretion by mesangial cells, mesangial cells were stimulated with LPS ([…]) in the presence of vehicle or TSA for 24 hr. The supernatant from the cell culture was assayed for nitric oxide.

MRL/lpr mice [1] = experiment: In vivo TSA in 12 wk MRL/lpr mice (0.5 mg/kg sc, 4 weeks); parameters: species or system mouse
Experimental: TSA was administered to MRL/lpr mice at 12 wks of age coinciding with the time of onset of clinical disease. TSA was given subcutaneously (sc) at a dose of 0.5 mg/kg dissolved in […]; control mice were given the vehicle alone (40 μl DMSO). Proteinuria was assessed as a measure of albumin in mg/mouse/day prior to the initial dose (at 12 wks of age) and after four wks of treatment (at 16 wks of age). […] After four weeks of treatment, nine mice in each group were sacrificed. At necropsy, the weight of the spleens were measured and sera was collected. […] IFN-γ was measured by ellispot assay in splenocytes isolated from vehicle or TSA treated mice.
TSA was administered to MRL/lpr mice at 12 wks of age at the time of onset of clinical disease. TSA was given subcutaneously (sc) at a dose of 0.5 mg/kg dissolved in 40 μl DMSO; control mice were given the vehicle alone (40 μl DMSO). After four weeks of treatment, nine mice in each group were sacrificed. One-half of one kidney was fixed in 10% formaldehyde/PBS, embedded in paraffin, and stained with hematoxylin and eosin. An examiner blinded to the treatment group quantified disease activity as follows: (a) Glomeruli were graded for hypercellularity (0–4), crescent formation (0–4), and inflammation (0–4). (b) The interstitium was graded for inflammation (0–4). Scores were additive (BALB/c mice historically receive scores of 0–0.5). Half of the second kidney was snap-frozen, embedded in OCT, frozen sections cut and analyzed for C3 deposition by immunofluorescence.
In determining whether TSA suppresses autoantibody production anti-dsDNA and anti GBM-auto-antibodies were measured.

[2] = test system: IL-12 p35 and p40 transcripts; experiment: IL-12 p35 and p40 transcripts in MRL/lpr splenocytes; type: cell-based, mouse
Experimental: In this study, the question of whether TSA down-regulates transcription of both IL-12 p35 and p40 subunit mRNA was investigated. […] Splenocytes were stimulated with LPS and IFN-γ for 6 or 18 hr. […] When splenocytes were preincubated with TSA or SAHA for 18 hr and then stimulated with LPS and IFN-γ IL-12 p35 and p40 transcripts were undetectable (FIGS. 9B–D).

SP1 binding = SP1 binding at TGF-β1 promoter; type: cell-based, human; conditions: after treatment with TSA
From the text: Exposure of SLE PBMCs to TSA and SAHA yielded an eight-fold increase in TGF-β1 transcript and a 30% rise in the synthesis of TGF-β1 protein. This enhanced transcriptional activation was temporally associated with increased acetylation of both H3 and H4 nucleosomal histones. […] The increase in total acetylated histones was not global; neither GAPDH nor G6PD genes were transcriptionally activated. […] Thus, the capacity of HDIs to increase the endogenous synthesis of TGF-β1 raises the possibility that these inhibitors could be therapeutic candidates for the treatment of SLE, atherosclerosis, and osteoporosis in addition to cancers.

MRL/lpr mice [3] = experiment: In vivo TSA in 26 week old MRL/lpr mice (5 mg/kg s.c. daily), proteinuria; parameters: species or system mouse
From the text: The effect of TSA on proteinuria and nitric oxide secretion and increased survival in 26 week old MRL/lpr mice was examined. In this age group, MRL/lpr mice developed full-blown disease with evidence of proliferative immune-complex-mediated glomerulo-nephritis, vasculitis, arthritis, and massive lymphadenopathy. Most of the mice expired by the age of 30 weeks. […] Urine was collected for a 24 hr time period on days 0, 7 and 14, and measured for protein and nitric oxide. Toxicity of TSA is being assessed by monitoring body weight, infection, abnormal behavior and survival of treated mice.

[4] = test system: acetylated H3 and H4 histones; experiment: Western immunoblot of acetylated H3 and H4 histones in SLE PBMCs; type: cell-based, human; conditions: 1000 ng/ml TSA or 20 μM SAHA, 18 hr
Experimental: The effect of TSA and SAHA was examined to determine if HDIs induce accumulation of acetylated histones in SLE PBMCs on the level of histone acetylation in SLE PBMCs. Following culture of PBMCs in the presence of vehicle, 1000 ng/ml TSA or 20 μM SAHA for 18 hr, histones were isolated.

[5] = splenocytes from 24-wk MRL/lpr mice, 18 hr
[6] = 0.5 mg/kg sc, 4 weeks treatment

CC(/C=C/C(=O)NO)=C\[C@@H](C)C(=O)c1ccc(N(C)C)cc1 [TSA, Trichostatin A]
TSA concentration of maximal inhibition of IL-6 transcript (IL-6 mRNA; [5]): 300 ng/mL
TSA concentration that decreased IL-6 transcript (IL-6 mRNA; [5]): 100 ng/mL
LPS- and IFN-γ induced IL-6 mRNA (IL-6 mRNA; splenocytes from younger MRL/lpr mice pretreated 18 hr, stimulated 6 or 18 hr): no detectable IL-6 mRNA
LPS-induced nitric oxide production (mesangial cells): able to suppress
proteinuria (albumin) (MRL/lpr mice [1]; 0.5 mg/kg sc from 12 wks, after four wks, vs vehicle): prevented an increase in proteinuria
C3 deposition (kidney immunofluorescence) (MRL/lpr mice [1]; [6]): did not show change
glomerulonephritis and renal score (MRL/lpr mice [1]; [6]): significant reduction
number of IFN-γ secreting cells (ellispot, splenocytes) (MRL/lpr mice [1]; 0.5 mg/kg sc, four weeks): significant decrement
spleen weight (MRL/lpr mice [1]; 0.5 mg/kg sc, four weeks, vs vehicle): significantly decreased in weight
overall health (MRL/lpr mice [1]; 0.5 mg/kg sc, vs vehicle): signs of better overall health
anti-dsDNA and anti GBM auto-antibodies (MRL/lpr mice [1]; TSA vs vehicle, 4 weeks treatment): no significant change
LPS and IFN-γ induced IL-12 p35 and p40 transcripts ([2]; splenocytes from 10-wk old MRL/lpr mice preincubated 18 hr, stimulated 6 or 18 hr): undetectable
TSA concentration that completely suppressed constitutive IL-12 p35 and p40 transcripts ([2]; splenocytes from 24-wk MRL/lpr mice): above 100 ng/ml
SP1 binding after localized acetylation of the TGF-β1 promoter (SP1 binding): not associated with a concomitant increase
proteinuria in day 7 and day 14 compared to day 0 (MRL/lpr mice [3]; 26 week old MRL/lpr mice, 5 mg/kg TSA s.c. daily, in comparison to vehicle): less proteinuria
Proteinuria, DAY 0 (MRL/lpr mice [3]; individual 26 week old MRL/lpr mice of TSA group, day 0 (baseline), 24 hr urine): 964 µg/day and 10 µg/day and 16689 µg/day and 213 µg/day and 14420 µg/day and 107 µg/day and 5 µg/day
Proteinuria, DAY 7 (MRL/lpr mice [3]; individual 26 week old MRL/lpr mice, 5 mg/kg TSA s.c. daily, day 7, 24 hr urine, 5 mg/kg): 340 µg/day and 4.6 µg/day and 274 µg/day and 54 µg/day and 4701 µg/day and 80 µg/day and 9 µg/day
Proteinuria, DAY 14 (MRL/lpr mice [3]; individual 26 week old MRL/lpr mice, 5 mg/kg TSA s.c. daily, day 14, 24 hr urine, 5 mg/kg): 242 µg/day and 4.3 µg/day and 865 µg/day and 82 µg/day and 3081 µg/day and 25 µg/day and 10 µg/day
accumulation of acetylated H3 and H4 histones [4]: induced the accumulation
